Experimental data taken from PMC5867518 (Cell metabolism, 2015).

Columns and labels:
Assay in all cases: PI3-kinase
Format in all cases: biochemical
PI3Kδ (p110δ/p85α) = PI3Kδ (p110δ/p85α) (Homo sapiens, UniProt O00329)
PI3Kγ (p110γ) = PI3Kγ (p110γ) (Homo sapiens, UniProt P48736)
PI3Kα (p110α/p85α) = PI3Kα (p110α/p85α) (Homo sapiens, UniProt P42336)
Sequence of PI3Kα (p110α/p85α) (P42336 whole entry): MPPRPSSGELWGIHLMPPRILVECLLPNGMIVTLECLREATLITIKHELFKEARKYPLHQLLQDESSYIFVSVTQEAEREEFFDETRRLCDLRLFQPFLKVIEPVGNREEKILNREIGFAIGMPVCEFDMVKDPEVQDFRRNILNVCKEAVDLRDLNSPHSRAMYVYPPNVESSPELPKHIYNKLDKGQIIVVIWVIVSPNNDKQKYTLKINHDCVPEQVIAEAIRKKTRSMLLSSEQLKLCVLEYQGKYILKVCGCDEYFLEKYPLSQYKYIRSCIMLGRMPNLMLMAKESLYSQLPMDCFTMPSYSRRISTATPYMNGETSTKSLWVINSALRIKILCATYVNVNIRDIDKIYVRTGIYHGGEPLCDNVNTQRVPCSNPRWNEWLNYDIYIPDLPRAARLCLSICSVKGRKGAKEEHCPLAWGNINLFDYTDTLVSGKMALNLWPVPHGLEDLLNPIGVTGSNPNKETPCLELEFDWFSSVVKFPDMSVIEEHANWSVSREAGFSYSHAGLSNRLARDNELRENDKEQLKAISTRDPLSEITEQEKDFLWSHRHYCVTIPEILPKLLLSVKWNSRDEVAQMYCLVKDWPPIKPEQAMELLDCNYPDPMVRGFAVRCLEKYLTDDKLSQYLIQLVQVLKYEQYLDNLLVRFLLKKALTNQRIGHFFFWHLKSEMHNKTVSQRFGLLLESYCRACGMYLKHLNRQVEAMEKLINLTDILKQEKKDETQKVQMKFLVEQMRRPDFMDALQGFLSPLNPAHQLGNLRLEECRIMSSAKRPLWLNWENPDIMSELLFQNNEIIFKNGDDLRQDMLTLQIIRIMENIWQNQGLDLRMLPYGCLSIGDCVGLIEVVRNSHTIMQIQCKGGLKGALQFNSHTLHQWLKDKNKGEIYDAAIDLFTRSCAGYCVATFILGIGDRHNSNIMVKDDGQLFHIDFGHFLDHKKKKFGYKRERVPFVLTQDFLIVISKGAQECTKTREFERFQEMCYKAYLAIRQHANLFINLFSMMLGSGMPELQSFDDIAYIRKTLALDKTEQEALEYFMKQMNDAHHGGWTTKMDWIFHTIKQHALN
Sequence of PI3Kα (p110α/p85α) (P27986 2-724 partner): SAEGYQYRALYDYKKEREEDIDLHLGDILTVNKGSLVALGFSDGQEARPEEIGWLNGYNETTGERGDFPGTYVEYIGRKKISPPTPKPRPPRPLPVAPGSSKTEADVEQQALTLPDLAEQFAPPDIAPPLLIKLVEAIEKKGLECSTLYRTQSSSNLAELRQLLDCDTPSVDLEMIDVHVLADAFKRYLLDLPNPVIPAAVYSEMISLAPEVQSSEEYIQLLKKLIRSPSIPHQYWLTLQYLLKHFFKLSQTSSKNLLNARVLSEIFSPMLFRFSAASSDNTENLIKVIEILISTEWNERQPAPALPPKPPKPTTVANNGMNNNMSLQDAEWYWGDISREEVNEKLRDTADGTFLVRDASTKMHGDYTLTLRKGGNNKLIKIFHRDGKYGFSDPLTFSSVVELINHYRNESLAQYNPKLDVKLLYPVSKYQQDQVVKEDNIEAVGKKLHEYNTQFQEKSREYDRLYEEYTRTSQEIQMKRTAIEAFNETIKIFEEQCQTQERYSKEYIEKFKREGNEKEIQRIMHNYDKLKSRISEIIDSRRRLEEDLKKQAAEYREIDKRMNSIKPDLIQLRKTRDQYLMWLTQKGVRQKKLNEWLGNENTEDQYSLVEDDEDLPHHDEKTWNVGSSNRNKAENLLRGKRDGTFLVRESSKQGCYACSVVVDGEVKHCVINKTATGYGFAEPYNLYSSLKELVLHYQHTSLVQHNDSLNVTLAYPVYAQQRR

Sequence of PI3Kγ (p110γ) (P48736 whole entry): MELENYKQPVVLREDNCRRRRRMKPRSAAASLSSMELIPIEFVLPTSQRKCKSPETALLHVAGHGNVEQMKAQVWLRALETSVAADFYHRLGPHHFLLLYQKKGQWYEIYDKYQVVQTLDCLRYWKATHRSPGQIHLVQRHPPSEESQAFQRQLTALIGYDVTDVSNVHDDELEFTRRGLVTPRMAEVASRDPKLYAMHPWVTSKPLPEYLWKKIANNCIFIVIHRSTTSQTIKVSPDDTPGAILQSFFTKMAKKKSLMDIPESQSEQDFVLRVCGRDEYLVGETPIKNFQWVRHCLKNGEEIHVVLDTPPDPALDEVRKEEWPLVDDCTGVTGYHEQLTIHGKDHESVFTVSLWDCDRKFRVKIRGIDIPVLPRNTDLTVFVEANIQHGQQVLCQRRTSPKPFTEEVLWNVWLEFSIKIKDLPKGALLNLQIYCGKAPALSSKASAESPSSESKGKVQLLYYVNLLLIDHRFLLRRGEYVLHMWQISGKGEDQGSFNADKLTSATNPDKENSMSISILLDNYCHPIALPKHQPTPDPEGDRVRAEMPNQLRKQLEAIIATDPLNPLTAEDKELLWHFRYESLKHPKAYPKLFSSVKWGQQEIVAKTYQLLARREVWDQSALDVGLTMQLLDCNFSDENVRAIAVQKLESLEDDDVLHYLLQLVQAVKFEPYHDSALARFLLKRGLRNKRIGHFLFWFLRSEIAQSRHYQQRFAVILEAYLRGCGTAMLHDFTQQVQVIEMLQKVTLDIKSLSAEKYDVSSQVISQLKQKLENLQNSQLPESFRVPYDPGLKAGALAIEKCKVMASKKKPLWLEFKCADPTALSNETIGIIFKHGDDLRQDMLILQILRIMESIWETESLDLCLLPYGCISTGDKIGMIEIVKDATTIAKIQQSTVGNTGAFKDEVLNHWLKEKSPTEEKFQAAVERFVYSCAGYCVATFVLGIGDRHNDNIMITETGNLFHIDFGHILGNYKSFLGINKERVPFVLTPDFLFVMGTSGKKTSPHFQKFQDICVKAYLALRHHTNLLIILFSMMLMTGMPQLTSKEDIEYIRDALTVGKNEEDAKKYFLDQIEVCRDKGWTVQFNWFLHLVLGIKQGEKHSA
Sequence of PI3Kδ (p110δ/p85α) (O00329 whole entry): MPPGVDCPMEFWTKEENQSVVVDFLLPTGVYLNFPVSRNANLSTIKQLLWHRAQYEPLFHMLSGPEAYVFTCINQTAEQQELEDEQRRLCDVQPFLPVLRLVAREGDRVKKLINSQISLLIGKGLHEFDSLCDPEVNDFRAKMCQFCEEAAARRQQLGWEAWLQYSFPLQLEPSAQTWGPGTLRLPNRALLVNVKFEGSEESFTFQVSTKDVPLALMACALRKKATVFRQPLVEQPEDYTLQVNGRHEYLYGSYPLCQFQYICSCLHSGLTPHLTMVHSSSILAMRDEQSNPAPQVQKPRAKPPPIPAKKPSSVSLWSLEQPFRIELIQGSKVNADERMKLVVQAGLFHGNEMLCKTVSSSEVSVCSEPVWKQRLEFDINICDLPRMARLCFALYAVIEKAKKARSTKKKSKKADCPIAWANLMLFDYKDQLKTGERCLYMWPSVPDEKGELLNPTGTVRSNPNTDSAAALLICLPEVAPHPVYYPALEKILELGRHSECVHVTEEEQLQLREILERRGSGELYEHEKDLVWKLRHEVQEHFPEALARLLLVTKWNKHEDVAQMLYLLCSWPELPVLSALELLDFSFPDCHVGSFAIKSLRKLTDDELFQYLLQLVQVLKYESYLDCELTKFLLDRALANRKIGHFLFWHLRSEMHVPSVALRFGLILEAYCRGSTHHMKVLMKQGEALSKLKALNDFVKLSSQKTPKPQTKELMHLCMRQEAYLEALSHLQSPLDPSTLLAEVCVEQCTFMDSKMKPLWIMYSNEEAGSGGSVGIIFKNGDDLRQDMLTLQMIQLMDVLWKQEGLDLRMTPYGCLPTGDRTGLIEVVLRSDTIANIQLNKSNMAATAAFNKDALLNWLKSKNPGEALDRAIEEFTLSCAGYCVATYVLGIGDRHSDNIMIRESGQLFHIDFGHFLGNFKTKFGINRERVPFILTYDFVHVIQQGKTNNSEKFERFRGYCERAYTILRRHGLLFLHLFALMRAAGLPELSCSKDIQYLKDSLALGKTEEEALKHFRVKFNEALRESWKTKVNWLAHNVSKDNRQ
Sequence of PI3Kδ (p110δ/p85α) (P27986 2-724 partner): as the sequence (P27986 2-724 partner) above

IC50 (PI3Kδ (p110δ/p85α)): 2.5 nM
IC50 (PI3Kγ (p110γ)): 44 nM
IC50 (PI3Kα (p110α/p85α)): 2.4 nM
Substance: CNIO-PI3Ki
